Assay results from US20220304985A1, “COMBINATION THERAPY FOR PROLIFERATIVE CONDITIONS” (Avexxin AS, priority 2019, published 2022).

Assays:
MDA-MB-436 cells = assay: Resazurin viability assay, MDA-MB-436 cells (monotherapy and combination); type: cell-based, human; conditions: for IC50: MDA-MB-436, 72 h treatment, n = 3
Description: The MDA-MB-436 cell line was from ATCC. The MDA-MB-436 cell line was established from a pleural effusion of a patient with metastatic breast adenocarcinoma. The cell line is of triple negative breast cancer, however the MDA-MB-436 cell line is classified as mesenchymal stem-like with high enrichment of genes for biological processes such as cell motility (Rho pathway), cellular differentiation and growth pathways (ALK pathway, TGF-β signalling and Wnt/β-catenin pathway). MDA-MB-436 cells were maintained in RPMI-1640 culturing media supplemented with 10% FBS, 0.3 mg/mL L-glutamine and 0.1 mg/mL gentamicin, 10 mcg/mL insulin and incubated in 37° C. humidified atmosphere. Sub-culture using trypsin-EDTA 0.5% every 3-4 days with cell density of 2-3 million cells in a T75 cm2 culturing flask to ensure actively proliferating cells. The MDA-MB-436 cells was seeded in 1×10^4 cells/well. After 24 h of cultivation, when the cells were ˜30-50% confluent, the medium was replaced with serum free growth medium without gentamycin to ensure synchronization of the cells and to increase cell sensitivity to treatment. The MDA-MB-436 cells were starved in starvation media with insulin. The medium was replaced with fresh serum free medium with or without compound 2, NVP-BKM120 (Cayman Chemicals, US). The cells were observed under the microscope to evaluate possible morphology changes and signs of stress before the addition of resazurin according to the manufacturer's instructions (RnD Systems, UK). MDA-MB-436 cells were incubated for 72 h. Resazurin was metabolized for 1-2 h (37° C., 5% CO2) before fluorescence was read at 544 nm excitation and 590 nm emission wavelength (BioTek Synergy HT). The experiments were performed in series of eight wells per treatment and repeated 2-3 times. […] Statistical significance between treatments were determined using Welch's ANOVA with Tamhane's T2 correction for multiple comparisons, p<0.05 was considered statistically significant.

CCRF-CEM cells = assay: Resazurin viability assay, CCRF-CEM cells (combination, Bliss Independence CI); type: cell-based, human; conditions: 0.5 μm of BKM120 as used in combination, FIG. 1, CCRF-CEM
Experimental: The CCRF-CEM (ATCC CCL-119) cell line is derived from T lymphoblasts from peripheral blood of a child with acute leukaemia. The cells were grown according to the recommendations of the supplier. The culture medium, RPMI-1640, was supplemented with 10 μL/mL glutamine, 2 μL/mL gentamicin and 10% foetal bovine serum (FBS) to make complete growth medium (CGM). The cells were incubated at 37 °C in a humidified atmosphere with 5% CO2. Passaging was conducted every 2 - 4 days to maintain a cell density below 2.5×10^6 cells/mL, and thus ensure a continuous proliferation. Cells were allowed to acclimatise for two weeks after establishment before they were utilised for experimental purposes and discarded after three months. […] Resazurin was metabolized for 1-2 h (37° C., 5% CO2) before fluorescence was read at 544 nm excitation and 590 nm emission wavelength (BioTek Synergy HT). […] Statistical significance between treatments were determined using Welch's ANOVA with Tamhane's T2 correction for multiple comparisons, p<0.05 was considered statistically significant. […] The combination index was calculated using: [formula] • where CI is the combination index, EA represent the effect of drug A given as a monotherapy, EB represent the effect of drug B given as a monotherapy and EAB represent drugs A and B given in combination at the same concentrations as the monotherapies. […]

Row | IC50 (MDA-MB-436 cells; Homo sapiens) | SMILES | viability at 0.4 µM (MDA-MB-436 cells; Homo sapiens, 72 h, BKM120 0.4 μM alone, MDA-MB-436, relative to untreated control set to 100%) | viability at 1.1 µM (MDA-MB-436 cells; Homo sapiens, 72 h, BKM120 1.1 μM alone, MDA-MB-436, relative to untreated control set to 100%) | expected inhibition (CCRF-CEM cells) | viability at 5 µM (MDA-MB-436 cells; Homo sapiens, 72 h, Cmpd 2 5 μM alone, MDA-MB-436, relative to untreated control set to 100%) | viability at 6.5 µM (MDA-MB-436 cells; Homo sapiens, 72 h, Cmpd 2 6.5 μM alone, MDA-MB-436, relative to untreated control set to 100%) | viability at 7.5 µM (MDA-MB-436 cells; Homo sapiens, 72 h, Cmpd 2 7.5 μM alone, MDA-MB-436, relative to untreated control set to 100%) | viability at 10 µM (MDA-MB-436 cells; Homo sapiens, 72 h, Cmpd 2 10 μM alone, MDA-MB-436, relative to untreated control set to 100%) | concentration at which viability was reduced significantly compared to the untreated control (MDA-MB-436 cells; MDA-MB-436, 72 h, control set to 100% viability)
1 | 1.2 µM | Nc1cc(C(F)(F)F)c(-c2cc(N3CCOCC3)nc(N3CCOCC3)n2)cn1 [BKM120, buparlisib, reference compound] | 84 ± 7% | 45 ± 10% | 10% | – | – | – | – | –
2 | 10.4 µM | CCCCCCCOc1ccc(OCC(=O)c2nc(C(=O)OC)cs2)cc1 [Compound 2] | – | – | – | 92 ± 3% | 82 ± 6% | 76 ± 4% | 60 ± 10% | ≥ 9 µM
